Assay results reported in US8952008B2, “Chemical compounds” (Pfizer Limited, priority 2012, dated 2015).
pKi: −log10 of the molar value.

Key:
[1] = molecular target: GABRA1-GABRB3-GABRG2 chloride currents in HEK cells (Homo sapiens (Human), UniProt P14867+P18507); experiment: QPatch electrophysiological recording, % enhancement of GABA current (α1 PAM); assay type: cell-based; conditions: approximately EC10 GABA, −60 mV, whole-cell patch clamp
Experimental: (§1) Cell suspension containing HEK cells expressing GABRA2-GABRB2-GABRG2 was placed on the QPatch instrument in serum-free medium into the instrument's cell stirrer. The instrument washed the cells once using extracellular buffer and then dispensed them into the QPlate HT measurement plate at a concentration of 3-4-e6/ml. […] All recordings were made at room temperature (22-24° C.).
(§2) Current records were acquired at 1 KHz and filtered at 0.3 KHz using the Bessel filter. Series resistance compensation was set to 80% in the QPatch software.
(§3) All compounds were dissolved in dimethyl sulfoxide to make 30 mM or 10 mM stock solutions, which were then diluted to 1000 times the desired final concentration in dimethyl sulfoxide. These were diluted into extracellular solution to attain the final concentrations desired. […] This concentration of dimethyl sulfoxide was present in all samples.
(§4) Currents were recorded at −60 mV, using an approximately EC10 concentration of gamma-aminobutyric acid (GABA). This dose of gamma-aminobutyric acid was applied for 6 seconds and washed off using extracellular buffer as an unrecorded application using the pipetting system of the QPatch instrument. The same dose of gamma-aminobutyric acid was then applied for 9 seconds, then the test compound was co-applied with this dose of gamma-aminobutyric acid for 15 seconds, and washed off using the extracellular solution using the pipetting system of the QPatch instrument.
(§5) Compound effect (% enhancement of gamma-aminobutyric acid current) was calculated using the following formula: [((peak modulator current amplitude-leak)−(GABA current amplitude-leak))/(GABA current amplitude-leak)]*100, where ‘leak’ is leak current at −60 mV, ‘peak modulator current amplitude’ is the current elicited by co-application of gamma-aminobutyric acid and test compound, and ‘GABA current amplitude’ is the current elicited by application of gamma-aminobutyric acid alone.
The ability of the compounds of the formula (I) to modulate the GABA channels expressing the al subunit (or GABRA1) can also be measured using an assay analogous to that described above but replacing the GABRA2-GABRB2-GABRG2 gene construct with the GABRA1-GABRB3-GABRG2 gene construct. All other conditions remain the same including the same cell line and conditions for cell growth.

[2] = molecular target: GABRA2-GABRB2-GABRG2 chloride currents in HEK cells (Homo sapiens (Human), UniProt P18507+P47869); experiment: QPatch electrophysiological recording, % enhancement of GABA current (α2 PAM); assay type: cell-based; conditions: approximately EC10 GABA, −60 mV, whole-cell patch clamp
Experimental: Human Embryonic Kidney (HEK) cells were transfected with a GABRA2-GABRB2-GABRG2 construct using standard techniques.
For QPatch electrophysiology testing, cells were harvested from flasks by enzymatic dissociation and resuspended in serum-free medium. Cells were typically used for electrophysiological experiments within 24 to 72 hours after splitting.
as §1, §2, §3, §4, §5

[3] = molecular target: human recombinant GABA A receptor containing the alpha2, beta2, and gamma3 subunits (Homo sapiens, UniProt P47869+Q99928); experiment: Radioligand competition binding assay with [3H]Ro-15-1788 (Flumazenil);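 note: membranes from HEK cells expressing the receptor, incubated with radioligand to equilibrium, filter-bound radioactivity counted, Ki reported as geometric mean of replicate runs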
Experimental: Membranes were prepared from HEK cells expressing hGABA A alpha2beta2-gamma3 receptor, and validated to ascertain protein concentration, receptor expression and to determine the Kd of the flumazenil as well as the Ki of a standard set of compounds before being used to test new compounds.
100 ul of radioligand and 100 ul of membrane in 50 mM Tris-HCl and 0.05% F127 with 1 ul of test compound was incubated for 2 hours to allow the reaction to achieve equilibrium, and then harvested onto filter plates, dried and counted on a TopCount NXT. The data was analysed, and the Ki values were presented as the geometric mean of at least two replicates.

GABRA1-GABRB3-GABRG2 chloride currents in HEK cells, sequence (P14867 28-456): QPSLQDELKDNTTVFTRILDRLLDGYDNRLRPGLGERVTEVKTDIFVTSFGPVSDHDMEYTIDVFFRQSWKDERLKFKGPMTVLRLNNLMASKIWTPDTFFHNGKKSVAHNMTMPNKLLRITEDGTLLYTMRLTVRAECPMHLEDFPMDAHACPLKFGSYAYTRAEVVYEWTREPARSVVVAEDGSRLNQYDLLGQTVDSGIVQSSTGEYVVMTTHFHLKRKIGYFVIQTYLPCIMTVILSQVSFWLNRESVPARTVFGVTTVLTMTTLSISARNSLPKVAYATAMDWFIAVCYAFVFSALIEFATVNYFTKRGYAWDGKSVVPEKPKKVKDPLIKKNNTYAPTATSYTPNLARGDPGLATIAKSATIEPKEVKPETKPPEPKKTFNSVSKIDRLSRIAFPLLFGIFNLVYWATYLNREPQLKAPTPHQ
GABRA1-GABRB3-GABRG2 chloride currents in HEK cells, sequence (P28472 26-473 partner): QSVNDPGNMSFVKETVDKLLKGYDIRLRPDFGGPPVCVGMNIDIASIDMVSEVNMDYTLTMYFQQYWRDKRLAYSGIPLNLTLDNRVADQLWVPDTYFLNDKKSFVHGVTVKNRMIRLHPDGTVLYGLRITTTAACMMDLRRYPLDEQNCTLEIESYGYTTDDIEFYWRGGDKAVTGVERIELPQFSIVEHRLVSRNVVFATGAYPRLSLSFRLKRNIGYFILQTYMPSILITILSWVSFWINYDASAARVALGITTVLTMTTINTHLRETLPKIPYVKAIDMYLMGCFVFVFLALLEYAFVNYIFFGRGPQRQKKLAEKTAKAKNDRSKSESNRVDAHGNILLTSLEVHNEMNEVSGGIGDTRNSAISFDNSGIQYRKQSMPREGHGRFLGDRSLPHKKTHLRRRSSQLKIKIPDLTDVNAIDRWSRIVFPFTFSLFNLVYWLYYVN
GABRA1-GABRB3-GABRG2 chloride currents in HEK cells, sequence (P18507 40-475): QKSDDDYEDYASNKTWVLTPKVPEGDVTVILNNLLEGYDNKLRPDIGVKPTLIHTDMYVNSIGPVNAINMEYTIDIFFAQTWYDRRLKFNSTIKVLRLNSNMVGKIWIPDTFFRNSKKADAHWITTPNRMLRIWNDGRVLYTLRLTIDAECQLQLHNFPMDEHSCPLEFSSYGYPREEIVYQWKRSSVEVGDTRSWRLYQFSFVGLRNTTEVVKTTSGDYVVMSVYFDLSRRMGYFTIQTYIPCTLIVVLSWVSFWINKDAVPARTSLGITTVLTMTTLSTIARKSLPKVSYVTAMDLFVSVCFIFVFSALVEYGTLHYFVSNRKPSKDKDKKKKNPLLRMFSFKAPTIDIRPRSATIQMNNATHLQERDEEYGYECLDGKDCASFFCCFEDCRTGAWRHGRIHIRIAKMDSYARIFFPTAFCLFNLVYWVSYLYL
GABRA2-GABRB2-GABRG2 chloride currents in HEK cells, sequence (P47869 29-451): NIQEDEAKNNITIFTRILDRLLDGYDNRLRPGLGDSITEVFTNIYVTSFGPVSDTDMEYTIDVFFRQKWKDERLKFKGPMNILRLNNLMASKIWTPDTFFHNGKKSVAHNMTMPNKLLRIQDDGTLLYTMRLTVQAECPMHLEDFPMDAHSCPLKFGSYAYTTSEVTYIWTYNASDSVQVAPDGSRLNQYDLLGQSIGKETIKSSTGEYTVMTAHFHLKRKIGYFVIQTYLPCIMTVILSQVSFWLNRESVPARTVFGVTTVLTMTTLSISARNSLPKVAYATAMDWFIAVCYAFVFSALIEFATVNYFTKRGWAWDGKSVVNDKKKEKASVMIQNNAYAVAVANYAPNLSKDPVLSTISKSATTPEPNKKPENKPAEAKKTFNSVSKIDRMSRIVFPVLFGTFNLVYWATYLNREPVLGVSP
GABRA2-GABRB2-GABRG2 chloride currents in HEK cells, sequence (P47870 26-512 partner): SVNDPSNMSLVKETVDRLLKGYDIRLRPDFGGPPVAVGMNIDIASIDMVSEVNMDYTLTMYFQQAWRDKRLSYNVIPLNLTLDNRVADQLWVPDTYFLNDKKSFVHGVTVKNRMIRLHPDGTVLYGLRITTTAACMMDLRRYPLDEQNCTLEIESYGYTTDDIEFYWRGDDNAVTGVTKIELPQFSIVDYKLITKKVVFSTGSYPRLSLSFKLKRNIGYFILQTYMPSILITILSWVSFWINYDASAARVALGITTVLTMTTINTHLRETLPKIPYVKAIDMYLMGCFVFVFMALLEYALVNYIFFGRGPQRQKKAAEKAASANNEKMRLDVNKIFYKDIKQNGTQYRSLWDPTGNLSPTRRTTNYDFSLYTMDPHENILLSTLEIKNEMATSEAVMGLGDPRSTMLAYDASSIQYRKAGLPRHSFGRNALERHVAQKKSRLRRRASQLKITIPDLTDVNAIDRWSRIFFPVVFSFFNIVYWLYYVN
GABRA2-GABRB2-GABRG2 chloride currents in HEK cells, sequence (P18507 40-475): as the sequence (P18507 40-475) above

Compound | α1 PAM (%) [1] | α2 PAM (%) [2] | pKi [3]
CCn1cnc2c(-c3ccc(F)c(-c4ccc(S(=O)(=O)C(C)C)cc4)c3)cnnc21 [Example 1, 7-Ethyl-4-[6-fluoro-4′-(propan-2-ylsulfonyl)biphenyl-3-yl]-7H-imidazo[4,5-c]pyridazine] | 1.05% | 124% | 7.51
CCn1cnc2c(-c3ccc(F)c(-c4ccc(S(C)(=O)=O)cc4F)c3)cnnc21 [Example 2, 4-[2′,6-Difluoro-4′-(methylsulfonyl)biphenyl-3-yl]-7-ethyl-7H-imidazo[4,5-c]pyridazine] | −4.67% | 1.69% | 7.96
CCn1cnc2c(-c3ccc(F)c(-c4ccc(S(=O)(=O)CC)cc4C#N)c3)cnnc21 [Example 11, 5′-(7-Ethyl-7H-imidazo[4,5-c]pyridazin-4-yl)-4-(ethylsulfonyl)-2′-fluoro-[1,1′-biphenyl]-2-carbonitrile] | −0.474% | 46.7% | 7.41
CCS(=O)(=O)c1ccc(-c2cc(-c3cnnc4c3ncn4C3CC3)ccc2F)cc1 [Example 19, 7-Cyclopropyl-4-[4′-(ethylsulfonyl)-6-fluorobiphenyl-3-yl]-7H-imidazo[4,5-c]pyridazine] | −6.17% | 84.3% | 7.51
CS(=O)(=O)c1ccc(-c2cc(-c3cnnc4c3ncn4C3CC3)ccc2F)cc1 [Example 21, 7-Cyclopropyl-4-(6-fluoro-4′-(methylsulfonyl)biphenyl-3-yl)-7H-imidazo[4,5-c]pyridazine] | −5.78% | 31.6% | 7.36
COc1cc(S(C)(=O)=O)ccc1-c1cc(-c2cnnc3c2ncn3C2CC2)ccc1F [Example 24, 7-Cyclopropyl-4-(6-fluoro-2′-methoxy-4′-(methylsulfonyl)-[1,1′-biphenyl]-3-yl)-7H-imidazo[4,5-c]pyridazine] | −0.441% | 55.3% | 7.43
CCS(=O)(=O)c1ccc(-c2cc(-c3cnnc4c3ncn4C3CC3)ccc2F)c(C#N)c1 [Example 25, 5′-(7-Cyclopropyl-7H-imidazo[4,5-c]pyridazin-4-yl)-4-(ethylsulfonyl)-2′-fluoro-[1,1′-biphenyl]-2-carbonitrile] | −5.82% | 23.9% | 6.77
COc1cc(S(C)(=O)=O)ccc1-c1cc(-c2cnnc3c2ncn3C2CCC2)ccc1F [Example 29, 7-Cyclobutyl-4-(6-fluoro-2′-methoxy-4′-(methylsulfonyl)-[1,1′-biphenyl]-3-yl)-7H-imidazol[4,5-c]pyridazine] | 69.4% | 173% | 7.00
CCS(=O)(=O)c1ccc(-c2cc(-c3cnnc4c3ncn4C(C)C)ccc2F)cc1 [Example 31, 4-[4′-(Ethylsulfonyl)-6-fluorobiphenyl-3-yl]-7-(propan-2-yl)-7H-imidazo[4,5-c]pyridazine] | 21.3% | 118% | 7.62
CC(C)n1cnc2c(-c3ccc(F)c(-c4ccc(S(N)(=O)=O)cc4)c3)cnnc21 [Example 32, 2′-Fluoro-5′-(7-isopropyl-7H-imidazo[4,5-c]pyridazin-4-yl)biphenyl-4-sulfonamide] | −29.5% | 77.2% | 8.24
CNS(=O)(=O)c1ccc(-c2cc(-c3cnnc4c3ncn4C(C)C)ccc2F)cc1 [Example 33, 2′-Fluoro-N-methyl-5′-[7-(propan-2-yl)-7H-imidazo[4,5-c]pyridazin-4-yl]biphenyl-4-sulfonamide] | −27.0% | 79.9% | 7.79
CCS(=O)(=O)c1ccc(-c2cc(-c3cnnc4c3ncn4C(C)C)ccc2F)c(F)c1 [Example 34, 4-[4′-(Ethylsulfonyl)-2′,6-difluorobiphenyl-3-yl]-7-(propan-2-yl)-7H-imidazol[4,5-c]pyridazine] | 4.99% | 94.7% | 7.46
COc1cc(S(C)(=O)=O)ccc1-c1cc(-c2cnnc3c2ncn3C(C)C)ccc1F [Example 38, 4-(6-Fluoro-2′-methoxy-4′-(methylsulfonyl)-[1,1′-biphenyl]-3-yl)-7-isopropyl-7H-imidazo[4,5-c]pyridazine] | 14.6% | 62.5% | 8.07
CCS(=O)(=O)c1ccc(-c2cc(-c3cnnc4c3ncn4C(C)C)ccc2F)c(C#N)c1 [Example 41, 4-(Ethylsulfonyl)-2′-fluoro-5′-(7-isopropyl-7H-imidazo[4,5-c]pyridazin-4-yl)-[1,1′-biphenyl]-2-carbonitrile] | 14.9% | 81.3% | 7.54
COc1cc(S(C)(=O)=O)ccc1-c1cc(-c2cnnc3c2ncn3C2CCCC2)ccc1F [Example 42, 7-Cyclopentyl-4-(6-fluoro-2′-methoxy-4′-(methylsulfonyl)-[1,1′-biphenyl]-3-yl)-7H-imidazo[4,5-c]pyridazine] | 112% | 199% | 7.04
CCn1cnc2c(-c3ccc(O)c(-c4ccc(S(=O)(=O)CC)cc4OC)c3)cnnc21 [Example 48, 5-(7-Ethyl-7H-imidazo[4,5-c]pyridazin-4-yl)-4′-(ethylsulfonyl)-2′-methoxy-[1,1′-biphenyl]-2-ol] | −5.53% | 47.8% | –
